Reference: PubChem BioAssay (NCI)
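Method: 48-hour compound exposure of cells in 96-well plates, five concentrations, linear interpolation of endpoints. TGI: total growth inhibition.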

Assays:
Assay in all cases: inhibition of tumour cell growth, NCI panel, 48 h
786-0 renal = test system: 786-0 renal
A498 renal = test system: A498 renal
A549 NSCLC = test system: A549 NSCLC
ACHN renal = test system: ACHN renal
BT-549 breast = test system: BT-549 breast
CAKI-1 renal = test system: CAKI-1 renal
CCRF-CEM leukemia = test system: CCRF-CEM leukemia
COLO 205 colon = test system: COLO 205 colon
DU-145 prostate = test system: DU-145 prostate
EKVX NSCLC = test system: EKVX NSCLC
HCC-2998 colon = test system: HCC-2998 colon
HCT-116 colon = test system: HCT-116 colon
HCT-15 colon = test system: HCT-15 colon
HL-60(TB) leukemia = test system: HL-60(TB) leukemia
HOP-62 NSCLC = test system: HOP-62 NSCLC
HOP-92 NSCLC = test system: HOP-92 NSCLC
HS 578T breast = test system: HS 578T breast
HT29 colon = test system: HT29 colon
IGROV1 ovarian = test system: IGROV1 ovarian
K-562 leukemia = test system: K-562 leukemia
KM12 colon = test system: KM12 colon
LOX IMVI melanoma = test system: LOX IMVI melanoma
M14 melanoma = test system: M14 melanoma
MALME-3M melanoma = test system: MALME-3M melanoma
MCF7 breast = test system: MCF7 breast
MDA-MB-231 breast = test system: MDA-MB-231 breast
MDA-MB-435 = test system: MDA-MB-435
MDA-N = test system: MDA-N
MOLT-4 leukemia = test system: MOLT-4 leukemia
NCI-H226 lung = test system: NCI-H226 lung
NCI-H23 lung = test system: NCI-H23 lung
NCI-H460 lung = test system: NCI-H460 lung
NCI-H522 lung = test system: NCI-H522 lung
NCI/ADR-RES ovarian = test system: NCI/ADR-RES ovarian
OVCAR-3 ovarian = test system: OVCAR-3 ovarian
OVCAR-4 ovarian = test system: OVCAR-4 ovarian
OVCAR-5 ovarian = test system: OVCAR-5 ovarian
OVCAR-8 ovarian = test system: OVCAR-8 ovarian
PC-3 prostate = test system: PC-3 prostate
RPMI-8226 leukemia = test system: RPMI-8226 leukemia
RXF 393 renal = test system: RXF 393 renal
SF-268 CNS = test system: SF-268 CNS
SF-295 CNS = test system: SF-295 CNS
SF-539 CNS = test system: SF-539 CNS
SK-MEL-2 melanoma = test system: SK-MEL-2 melanoma
SK-MEL-28 melanoma = test system: SK-MEL-28 melanoma
SK-MEL-5 melanoma = test system: SK-MEL-5 melanoma
SK-OV-3 ovarian = test system: SK-OV-3 ovarian
SN12C renal = test system: SN12C renal
SNB-19 CNS = test system: SNB-19 CNS
SNB-75 CNS = test system: SNB-75 CNS
SW-620 colon = test system: SW-620 colon
T-47D breast = test system: T-47D breast
TK-10 renal = test system: TK-10 renal
U251 CNS = test system: U251 CNS
UACC-257 melanoma = test system: UACC-257 melanoma
UACC-62 melanoma = test system: UACC-62 melanoma
UO-31 renal = test system: UO-31 renal
SR leukemia = test system: SR leukemia

SMILES: CC1(C)CC(=O)C(CCC(=O)/C=C/c2ccccc2)C(=O)C1
- TGI (786-0 renal): > 100 µM
- TGI (A498 renal): > 100 µM
- TGI (A549 NSCLC): > 100 µM
- TGI (ACHN renal): > 100 µM
- TGI (BT-549 breast): > 100 µM
- TGI (CAKI-1 renal): > 100 µM
- TGI (CCRF-CEM leukemia): > 100 µM
- TGI (COLO 205 colon): > 100 µM
- TGI (DU-145 prostate): > 100 µM
- TGI (EKVX NSCLC): > 100 µM
- TGI (HCC-2998 colon): > 100 µM
- TGI (HCT-116 colon): > 100 µM
- TGI (HCT-15 colon): > 100 µM
- TGI (HL-60(TB) leukemia): > 100 µM
- TGI (HOP-62 NSCLC): > 100 µM
- TGI (HOP-92 NSCLC): > 100 µM
- TGI (HS 578T breast): > 100 µM
- TGI (HT29 colon): > 100 µM
- TGI (IGROV1 ovarian): > 100 µM
- TGI (K-562 leukemia): > 100 µM
- TGI (KM12 colon): > 100 µM
- TGI (LOX IMVI melanoma): > 100 µM
- TGI (M14 melanoma): > 100 µM
- TGI (MALME-3M melanoma): > 100 µM
- TGI (MCF7 breast): > 100 µM
- TGI (MDA-MB-231 breast): > 100 µM
- TGI (MDA-MB-435): > 100 µM
- TGI (MDA-N): > 100 µM
- TGI (MOLT-4 leukemia): > 100 µM
- TGI (NCI-H226 lung): > 100 µM
- TGI (NCI-H23 lung): > 100 µM
- TGI (NCI-H460 lung): > 100 µM
- TGI (NCI-H522 lung): > 100 µM
- TGI (NCI/ADR-RES ovarian): > 100 µM
- TGI (OVCAR-3 ovarian): > 100 µM
- TGI (OVCAR-4 ovarian): > 100 µM
- TGI (OVCAR-5 ovarian): > 100 µM
- TGI (OVCAR-8 ovarian): > 100 µM
- TGI (PC-3 prostate): > 100 µM
- TGI (RPMI-8226 leukemia): > 100 µM
- TGI (RXF 393 renal): > 100 µM
- TGI (SF-268 CNS): > 100 µM
- TGI (SF-295 CNS): > 100 µM
- TGI (SF-539 CNS): > 100 µM
- TGI (SK-MEL-2 melanoma): > 100 µM
- TGI (SK-MEL-28 melanoma): > 100 µM
- TGI (SK-MEL-5 melanoma): > 100 µM
- TGI (SK-OV-3 ovarian): > 100 µM
- TGI (SN12C renal): > 100 µM
- TGI (SNB-19 CNS): > 100 µM
- TGI (SNB-75 CNS): > 100 µM
- TGI (SW-620 colon): > 100 µM
- TGI (T-47D breast): > 100 µM
- TGI (TK-10 renal): > 100 µM
- TGI (U251 CNS): > 100 µM
- TGI (UACC-257 melanoma): > 100 µM
- TGI (UACC-62 melanoma): > 100 µM
- TGI (UO-31 renal): > 100 µM

SMILES: Cc1ccc(S(=O)(=O)N2CCCN(S(=O)(=O)c3ccc(C)cc3)CCN(S(=O)(=O)c3ccc(C)cc3)CCCSCC2)cc1
- TGI (786-0 renal): > 100 µM
- TGI (A498 renal): > 100 µM
- TGI (A549 NSCLC): > 100 µM
- TGI (ACHN renal): > 100 µM
- TGI (BT-549 breast): > 100 µM
- TGI (CCRF-CEM leukemia): > 100 µM
- TGI (COLO 205 colon): > 100 µM
- TGI (DU-145 prostate): > 100 µM
- TGI (EKVX NSCLC): > 100 µM
- TGI (HCC-2998 colon): > 100 µM
- TGI (HCT-116 colon): > 100 µM
- TGI (HL-60(TB) leukemia): > 100 µM
- TGI (HOP-62 NSCLC): > 100 µM
- TGI (HOP-92 NSCLC): > 100 µM
- TGI (HS 578T breast): > 100 µM
- TGI (HT29 colon): > 100 µM
- TGI (IGROV1 ovarian): > 100 µM
- TGI (K-562 leukemia): > 100 µM
- TGI (M14 melanoma): > 100 µM
- TGI (MCF7 breast): > 100 µM
- TGI (MDA-MB-231 breast): > 100 µM
- TGI (MDA-MB-435): > 100 µM
- TGI (MDA-N): > 100 µM
- TGI (MOLT-4 leukemia): > 100 µM
- TGI (NCI-H226 lung): > 100 µM
- TGI (NCI-H23 lung): > 100 µM
- TGI (NCI-H460 lung): > 100 µM
- TGI (NCI/ADR-RES ovarian): > 100 µM
- TGI (OVCAR-3 ovarian): > 100 µM
- TGI (OVCAR-4 ovarian): > 100 µM
- TGI (OVCAR-5 ovarian): > 100 µM
- TGI (OVCAR-8 ovarian): > 100 µM
- TGI (RPMI-8226 leukemia): > 100 µM
- TGI (RXF 393 renal): > 100 µM
- TGI (SF-268 CNS): > 100 µM
- TGI (SF-295 CNS): > 100 µM
- TGI (SF-539 CNS): > 100 µM
- TGI (SK-MEL-2 melanoma): > 100 µM
- TGI (SK-MEL-28 melanoma): > 100 µM
- TGI (SK-MEL-5 melanoma): > 100 µM
- TGI (SK-OV-3 ovarian): > 100 µM
- TGI (SN12C renal): > 100 µM
- TGI (SNB-19 CNS): > 100 µM
- TGI (SNB-75 CNS): > 100 µM
- TGI (SW-620 colon): > 100 µM
- TGI (T-47D breast): > 100 µM
- TGI (U251 CNS): > 100 µM
- TGI (UACC-62 melanoma): > 100 µM
- TGI (UO-31 renal): > 100 µM

SMILES: O=C(Nn1c(-c2ccccc2)nc2ccccc2c1=O)c1ccc(CS)cc1
- TGI (786-0 renal): 50.5 µM
- TGI (A498 renal): 99.8 µM
- TGI (A549 NSCLC): > 100 µM
- TGI (ACHN renal): > 100 µM
- TGI (BT-549 breast): 52.8 µM
- TGI (CCRF-CEM leukemia): 39.3 µM
- TGI (COLO 205 colon): > 100 µM
- TGI (DU-145 prostate): > 100 µM
- TGI (EKVX NSCLC): > 100 µM
- TGI (HCC-2998 colon): > 100 µM
- TGI (HCT-116 colon): > 100 µM
- TGI (HL-60(TB) leukemia): 50.1 µM
- TGI (HOP-62 NSCLC): > 100 µM
- TGI (HOP-92 NSCLC): > 100 µM
- TGI (HS 578T breast): > 100 µM
- TGI (HT29 colon): > 100 µM
- TGI (IGROV1 ovarian): 88.3 µM
- TGI (K-562 leukemia): > 100 µM
- TGI (KM12 colon): > 100 µM
- TGI (LOX IMVI melanoma): 5.38 µM
- TGI (M14 melanoma): > 100 µM
- TGI (MALME-3M melanoma): > 100 µM
- TGI (MCF7 breast): > 100 µM
- TGI (MDA-MB-231 breast): 96.1 µM
- TGI (MDA-MB-435): > 100 µM
- TGI (MDA-N): > 100 µM
- TGI (MOLT-4 leukemia): 62.4 µM
- TGI (NCI-H226 lung): > 100 µM
- TGI (NCI-H23 lung): > 100 µM
- TGI (NCI-H460 lung): > 100 µM
- TGI (NCI-H522 lung): > 100 µM
- TGI (OVCAR-3 ovarian): > 100 µM
- TGI (OVCAR-4 ovarian): > 100 µM
- TGI (OVCAR-5 ovarian): > 100 µM
- TGI (OVCAR-8 ovarian): > 100 µM
- TGI (PC-3 prostate): > 100 µM
- TGI (RPMI-8226 leukemia): > 100 µM
- TGI (RXF 393 renal): > 100 µM
- TGI (SF-268 CNS): > 100 µM
- TGI (SF-295 CNS): > 100 µM
- TGI (SF-539 CNS): 67.7 µM
- TGI (SK-MEL-28 melanoma): > 100 µM
- TGI (SK-MEL-5 melanoma): > 100 µM
- TGI (SK-OV-3 ovarian): > 100 µM
- TGI (SN12C renal): > 100 µM
- TGI (SNB-19 CNS): > 100 µM
- TGI (SNB-75 CNS): > 100 µM
- TGI (SR leukemia): > 100 µM
- TGI (SW-620 colon): > 100 µM
- TGI (T-47D breast): > 100 µM
- TGI (TK-10 renal): > 100 µM
- TGI (U251 CNS): > 100 µM
- TGI (UACC-257 melanoma): > 100 µM
- TGI (UACC-62 melanoma): > 100 µM
- TGI (UO-31 renal): > 100 µM
